# Laboratory results published in US20050197372A1 (priority 2002, published 2005).
# Key:
# [1] = test system: human platelets (platelet-rich plasma); experiment: Platelet-rich plasma aggregation induced by 5 μM ADP; assay type: cell-based; settings: for Platelet rich plasma aggregation induced by 5 μM ADP: 60 minutes at 37° C., baseline 75 ± 8
# Procedure: (§1) None of them received aspirin or any other anti-platelet agents. All subjects underwent blood sampling after at least 30 minutes of rest and 2 or more hours of fasting. Blood was drawn between 8 and 10 a.m. in order to avoid any diurnal influence and sampled from an antecubital vein using a 21-gauge butterfly needle containing 3.8% sodium citrate (1:9 volume) after having discarded the first 1.5 ml of free running blood. Eleven Vacutainer tubes (4.5 ml) were collected for a total of 49 ml of whole blood-citrate mixture from each study participant. One tube was kept as an internal control and was incubated with buffer solution. […] To avoid possible observer bias, blood samples were coded and blinded. Sampling procedures, and platelet studies were performed by individuals unaware of the protocol.
# (§2) The citrate and whole blood mixture were centrifuged at 1200 g for 5 minutes in order to obtain platelet-rich plasma (PRP) which was kept at room temperature for use within 1 hour. Platelet counts were determined for each PRP sample with a Coulter Counter ZM (Coulter Co., Hialeah, Fla.). Platelet numbers were adjusted to 3.50×10 ^8/ml with homologous platelet-poor plasma. Platelet aggregation (PA) was induced by 5 μM ADP, and 5 μM epinephrine. All agonists were obtained from Chronolog Corporation (Havertown, Pa.). Aggregation studies were performed using a 4 channel Chronolog Lumi-Aggregometer (model 560-Ca). Aggregation was expressed as the maximum percentage of light transmittance change (% max) from the baseline at the end of the recording time, using platelet-poor plasma as a reference. Aggregation curves were recorded for 6 minutes and analyzed according to internationally established standards. Ruggeri Z M, Semin Hemat 1994; 31: 229-239.
# [2] = test system: Glycoprotein IIb/IIIa activity (fibrinogen binding, PAC-1); experiment: Whole blood flow cytometry, GP IIb/IIIa activity (PAC-1); assay type: cell-based, human; settings: for Glycoprotein IIb/IIIa activity (fibrinogen binding, PAC-1): baseline 10.3 ± 2.8
# Procedure: as §1
# (§3) The expression of platelet receptors was determined by using the following monoclonal antibodies: CD31 (platelet endothelial cell adhesion molecule (PECAM-1), CD41 (glycoprotein [GP] IIb/IIIa, (IIb (3), CD42b (GP Ib), CD 51/CD61 ((v (3, or vitronectin receptor), CD62p (P-selectin), CD107a (lysosome associated membrane protein-1; LAMP-1), CD 107b (LAMP-2), CD151 (platelet/endothelial tetraspan antigen-3; PETA-3), and PAC-1 for fibrinogen-platelet (PharMingen, San Diego, Calif.). Platelet-leukocyte interactions were assessed by using dual antibodies for a pan-platelet marker (CD 151), together with CD14, a monocyte/macrophage marker. The blood-citrate mixture (50 μl) was diluted with 450 μl Tris buffered saline (TBS) (10 mmol/L Tris, 0.15 mol/L sodium chloride) and mixed by gently inverting an Eppendorf tube 2 times. Five μl of the corresponding antibodies were then added to each solution and the samples were incubated for 30 minutes. After incubation, 400 μl of 2% buffered paraformaldehyde was added for fixation. The samples were analyzed by a Becton Dickinson FACScan flow cytometer set up to measure fluorescent light scatter, as described in Gurbel P A, et al., J Am Coll Cardiol. 1998; 31: 1466-1473. The data were collected in list mode files and then analyzed. P selectin was expressed as percent positive cells as described in Gurbel P A, et al, Am Heart J 2000; 139: 320-328. Other antigens were expressed as log mean fluorescence intensity.
# [3] = test system: platelets (agglutination with fibrinogen-coated beads); experiment: Ultegra rapid platelet-function assay (RPFA-ASA); assay type: cell-based, human; settings: baseline 159 ± 27
# Procedure: as §1
# A rapid platelet-function assay cartridge test (RPFA-ASA, Ultegra® Accumetrics, Inc., San Diego, Calif., USA), using polystyrene beads coated cartridges with lyophilized human fibrinogen-coated microparticles, and propyl gallat served as an agonist. The whole blood citrate mixture was added to the cartridge, and agglutination between platelets and coated beads was recorded. The data mirrored turbidometric platelet aggregation and reflected the degree of platelet prostaglandin blockade. Smith J W, et al., Circulation 1999; 99: 620-625. Ultegra® assays were performed in duplicate. An electronic quality control test was performed on each instrument every day of use prior to performing any subject samples.
# [4] = test system: platelet-leukocyte microparticles (CD151 + CD14); experiment: Whole blood flow cytometry, platelet-leukocyte microparticles; assay type: cell-based, human; settings: for Formation of platelet-leukocyte microparticles (CD151 + CD14): baseline 92.2 ± 19.3
# Procedure: as §1, §3
# [5] = test system: lysosome associated membrane protein -2 (LAMP-2, CD107b); experiment: Whole blood flow cytometry, LAMP-2 expression; assay type: cell-based, human; settings: for Expression of lysosome associated membrane protein -2 (LAMP-2, CD107b): baseline 6.6 ± 2.1
# Procedure: as §1, §3
# [6] = test system: platelet/endothelial tetraspan antigen -3 (PETA-3, CD151); experiment: Whole blood flow cytometry, PETA-3 expression; assay type: cell-based, human; settings: for Expression of platelet/endothelial tetraspan antigen -3 (PETA-3, CD151): baseline 88.7 ± 24.2
# Procedure: as §1, §3
# [7] = test system: platelet/endothelial cell adhesion molecule-1 (PECAM-1, CD31); experiment: Whole blood flow cytometry, PECAM-1 expression; assay type: cell-based, human; settings: for Expression of platelet/endothelial cell adhesion molecule-1 (PECAM-1, CD31): baseline 69.2 ± 10.3
# Procedure: as §1, §3
# [8] = test system: human platelets (platelet-rich plasma); experiment: Platelet-rich plasma aggregation induced by 5 μM epinephrine; assay type: cell-based; settings: for Platelet rich plasma platelet aggregation induced by 5 μM epinephrine: 60 minutes at 37° C., baseline 78 ± 10
# Procedure: as §1, §2
compound,measurement,setting,value
"CC(O)CCC(=O)N(Cc1ccc(-c2ccccc2-c2nnn[nH]2)cc1)[C@H](C(=O)O)C(C)C (stereo partly drawn) [Valeryl 4-hydroxy valsartan, (S)-2{(4-Hydroxy-pentanoyl)-[2′-(1H-tetrazol-5-yl)-biphenyl-4-ylmethyl]amino}-3-methyl-butyric Acid]",Effect on ADP-induced platelet aggregation (in words),"[1]; PRP, 5 μM ADP, preincubation with escalating doses 10 nM to 100 μM",did not have any effect
same,Platelet rich plasma aggregation induced by 5 μM ADP,[1]; drug 10 nM,75 ± 6%
same,Platelet rich plasma aggregation induced by 5 μM ADP,[1]; drug 100 nM,76 ± 8%
same,Platelet rich plasma aggregation induced by 5 μM ADP,[1]; drug 1 μM,77 ± 9%
same,Platelet rich plasma aggregation induced by 5 μM ADP,[1]; drug 10 μM,76 ± 8%
same,Platelet rich plasma aggregation induced by 5 μM ADP,[1]; drug 100 μM,77 ± 9%
same,"Glycoprotein IIb/IIIa activity (fibrinogen binding, PAC-1)",[2]; drug 10 nM,11.0 ± 4.5 log MFI
same,"Glycoprotein IIb/IIIa activity (fibrinogen binding, PAC-1)",[2]; drug 100 nM,9.0 ± 3.3 log MFI
same,"Glycoprotein IIb/IIIa activity (fibrinogen binding, PAC-1)",[2]; drug 1 μM,6.7 ± 2.7 log MFI
same,"Glycoprotein IIb/IIIa activity (fibrinogen binding, PAC-1)",[2]; drug 10 μM,7.5 ± 3.1 log MFI
same,"Glycoprotein IIb/IIIa activity (fibrinogen binding, PAC-1)",[2]; drug 100 μM,9.9 ± 3.0 log MFI
same,Effect on fibrinogen binding (PAC-1) (in words),[2]; whole blood flow cytometry,slightly reduced
same,Ultegra Analyzer,[3]; drug 10 nM,177 ± 23 platelet activation units
same,Ultegra Analyzer,[3]; drug 100 nM,181 ± 31 platelet activation units
same,Ultegra Analyzer,[3]; drug 1 μM,134 ± 29 platelet activation units
same,Ultegra Analyzer,[3]; drug 10 μM,119 ± 38 platelet activation units
same,Ultegra Analyzer,[3]; drug 100 μM,168 ± 35 platelet activation units
same,Formation of platelet-leukocyte microparticles (CD151 + CD14),[4]; drug 10 nM,99.4 ± 29.7 log MFI
same,Formation of platelet-leukocyte microparticles (CD151 + CD14),[4]; drug 100 nM,94.3 ± 18.7 log MFI
same,Formation of platelet-leukocyte microparticles (CD151 + CD14),[4]; drug 1 μM,90.7 ± 20.5 log MFI
same,Formation of platelet-leukocyte microparticles (CD151 + CD14),[4]; drug 10 μM,89.2 ± 18.7 log MFI
same,Formation of platelet-leukocyte microparticles (CD151 + CD14),[4]; drug 100 μM,95.6 ± 19.9 log MFI
same,Effect on platelet-leukocyte microparticles (CD151+14) (in words),[4]; whole blood flow cytometry,not associated with any effect
same,"Expression of lysosome associated membrane protein -2 (LAMP-2, CD107b)",[5]; drug 10 nM,7.7 ± 3.8 log MFI
same,"Expression of lysosome associated membrane protein -2 (LAMP-2, CD107b)",[5]; drug 100 nM,7.0 ± 3.0 log MFI
same,"Expression of lysosome associated membrane protein -2 (LAMP-2, CD107b)",[5]; drug 1 μM,6.6 ± 3.4 log MFI
same,"Expression of lysosome associated membrane protein -2 (LAMP-2, CD107b)",[5]; drug 10 μM,7.2 ± 3.9 log MFI
same,"Expression of lysosome associated membrane protein -2 (LAMP-2, CD107b)",[5]; drug 100 μM,7.1 ± 2.9 log MFI
same,Effect on LAMP-2 (CD107b) (in words),[5]; whole blood flow cytometry,not associated with any effect
same,"Expression of platelet/endothelial tetraspan antigen -3 (PETA-3, CD151)",[6]; drug 10 nM,89.4 ± 18.2 log MFI
same,"Expression of platelet/endothelial tetraspan antigen -3 (PETA-3, CD151)",[6]; drug 100 nM,92.7 ± 22.2 log MFI
same,"Expression of platelet/endothelial tetraspan antigen -3 (PETA-3, CD151)",[6]; drug 1 μM,90.5 ± 15.7 log MFI
same,"Expression of platelet/endothelial tetraspan antigen -3 (PETA-3, CD151)",[6]; drug 10 μM,84.2 ± 31.1 log MFI
same,"Expression of platelet/endothelial tetraspan antigen -3 (PETA-3, CD151)",[6]; drug 100 μM,93.4 ± 27.4 log MFI
same,Effect on PETA-3 (CD151) (in words),[6]; whole blood flow cytometry,not associated with any effect
same,"Expression of platelet/endothelial cell adhesion molecule-1 (PECAM-1, CD31)",[7]; drug 10 nM,74.2 ± 13.4 log MFI
same,"Expression of platelet/endothelial cell adhesion molecule-1 (PECAM-1, CD31)",[7]; drug 100 nM,69.7 ± 15.1 log MFI
same,"Expression of platelet/endothelial cell adhesion molecule-1 (PECAM-1, CD31)",[7]; drug 1 μM,70.3 ± 16.4 log MFI
same,"Expression of platelet/endothelial cell adhesion molecule-1 (PECAM-1, CD31)",[7]; drug 10 μM,73.1 ± 9.3 log MFI
same,"Expression of platelet/endothelial cell adhesion molecule-1 (PECAM-1, CD31)",[7]; drug 100 μM,71.2 ± 15.5 log MFI
same,Effect on PECAM-1 (CD31) (in words),[7]; whole blood flow cytometry,not associated with any effect
same,Effect on epinephrine-induced platelet aggregation (in words),"[8]; PRP, 5 μM epinephrine, preincubation with escalating doses 10 nM to 100 μM",inhibited epinephrine-induced aggregation in concentration 1 μM and 10 μM
same,Platelet rich plasma platelet aggregation induced by 5 μM epinephrine,[8]; drug 10 nM,77 ± 10%
same,Platelet rich plasma platelet aggregation induced by 5 μM epinephrine,[8]; drug 100 nM,76 ± 9%
same,Platelet rich plasma platelet aggregation induced by 5 μM epinephrine,[8]; drug 1 μM,54 ± 11%
same,Platelet rich plasma platelet aggregation induced by 5 μM epinephrine,[8]; drug 10 μM,56 ± 13%
same,Platelet rich plasma platelet aggregation induced by 5 μM epinephrine,[8]; drug 100 μM,52 ± 9%
same,"Effect on epinephrine-induced aggregation, FIG. 1 aggregation curves (in words)","[8]; one study patient, incubation with 1 μM",blocks epinephrine-induced aggregation
